Results published in patent publication US12421206B2, “Aryl-n-aryl derivatives for treating a RNA virus infection” (ABIVAX, priority 2018, dated 2025).

Key:
[1] = test system: Chikungunya Virus (CHIKV) strain LR2006-OPY1 with GFP modification (CHIK 5'LR); assay: microbe, parasite or virus in culture; assay type: cell-based; conditions: HEK-293T, infected HEK293T cells; for inhibition at 1 µM: compounds at 1 μM, MOI 0.1, 22 h, mean of 2 experiments, values above 100 lowered to 100, read-out: % CHIKV Inhibition Mean (n = 2); for IC50: second round of experiments, range stated for listed compounds, read-out: IC50 (CHIKV inhibition)
Experimental: The ability of the compounds to inhibit viral replication was assessed with an experiment in which infected cells were treated by compounds of formula (Ie) at 1 μM. As a positive control for inhibition of Chikungunya, Ribavirin was used. Toxicity of the compounds was assessed in parallel.
Human embryonic kidney cells 293T (HEK293T, CRL-11268) were maintained in Dulbecco's modified Eagle's Medium (DMEM, 31966-021, Thermo Fisher Scientific) supplemented with 10% of fetal bovine serum (FBS), penicillin and streptomycin. After removal of the medium, cells were washed with Ca^2+ and Mg^2+-free salt solution to remove all traces of serum. After aspiration of wash solution, cells were dissociated with 0.25% Trypsin-EDTA solution and incubated 30 s at least in 37° C. incubator. Concentration of cell suspension was determined by an automatic cell counter (EVE, NanoEntek) and, if needed, adjusted to 0.33×10^6 cells/mL with DMEM medium supplemented with 10% FBS.
100 μL of the cell suspension were dispatched in a ViewPlate-96 Black (6005182, PerkinElmer) and in a transparent 96-well cell culture plate (655180, Greiner bio-one). After an incubation for 24 h at 37° C. under 5% of CO2, compounds were added at the proper concentration.
An intermediate dilution was prepared with DMSO (D8418, Sigma) at 2 mM in a 96-well V-bottom microplate from the stock solution:
Mix 1 μL of the 50 mM stock library in 25 μL of DMSO.
Mix 2 μL of the 25 mM stock library in 25 μL of DMSO.
An intermediate dilution was prepared with DMSO (D8418, Sigma) at 25 mM in a 96-well V-bottom microplate from the stock solution:
Mix 2 μL of the 50 mM stock library in 2 μL of DMSO.
Perform serial dilution in 2 μL of DMSO 13 times to reach 0.0015 mM. Proceed as follows in table III:
For both screen and determination of IC50, 1 μL of each solution was added in a 1 mL Masterblock 96 wells (Greiner bio-one, 780261) containing 1 mL of DMEM medium. As a positive control, 5 μL of a 80 mM Ribavirin solution (R9644, Sigma) is added to 1 mL of DMEM. On the other hand, DMSO is used as a negative control.
[…]. Vector Borne Zoonotic Dis. 2006; 6(4)). This modified virus was used to infect cells at MOI 0.1. […].
Medium was removed after 22 h at 37° C. under 5% of CO2 and cells were washed as described above. 60 μL of RIPA buffer (50 mM Tris-HCl pH8, 100 mM NaCl, 1 mM MgCl2, 1% Triton X-100) was added to cells and incubated for at least 20 min before reading fluorescence signal. Pierce 660 nm Protein Assay Reagent (22660, Thermo scientific) was used to normalize fluorescence signal by protein quantity.
• A first round of experiments has been performed wherein the results are expressed as inhibition percentage, which is calculated as follows, through the following steps: • 1. Fluorescence intensity (FI)/Absorbance 660 nm (A660)=A
This ratio allows considering the infection (GFP virus) to the protein amount. • 2. A′=A−background noise of non-infected plate, • 3. B=Fluorescence intensity (FI)/Absorbance 660 nm (A660) of infected but non treated plates, • 4. C=A′/B, which is then converted as the percentage of infection after treatment, compared to non-treated sample, and subsequently as the infection percentage. For instance, a value of 100 in Table IV here below means that, after treatment, the signal attributed to GFP fluorescence is abolished, which is correlated to the absence of infection. • 5. C′=100−C
This value corresponds to the inhibition's percentage.
The following Table IV encompasses said C′ value for some compounds, as calculated above with a mean of 2 experiments, and corresponding standard deviation.
Some values were originally above 100. In these cases, the value has been lowered to 100. This means that some molecules also have an impact on the viability of the cells. In other words, the A value may be lower than the background noise.
Moreover, for each measure, the test was performed with Ribavirin as control. The value of the inhibition percentage was checked, giving 100%.

DENV-2 strain 16681 = assay: DENV-2 inhibition (cytopathic effect inhibition) using Viral ToxGlo assay in A549 cells; assay type: cell-based, Dengue 2 virus; conditions: Dengue virus, DENV2, 120 h, compounds at 10 μM, MOI 0.5, 5 days p.i., read-out: % DENV-2 Inhibition Mean (n = 3)

Row | SMILES | inhibition at 1 µM [1] | inhibition at 10 µM (DENV-2 strain 16681) | IC50 [1]
1 | O=C(NCCC1CCCCC1)c1cccc(Nc2ccc(OCc3ccccn3)cc2)c1 [Compound 38, N-(2-cyclohexylethyl)-3-((4-(pyridin-2-ylmethoxy)phenyl)amino)benzamide] | 99% | 65% | –
2 | Cc1cc(OCc2ccccn2)ccc1Nc1cccc(C(=O)NCCC2CC2)c1 [Compound 45, N-(2-cyclopropylethyl)-3-((2-methyl-4-(pyridin-2-ylmethoxy)phenyl)amino)benzamide] | 99% | 89% | –
3 | Cc1cc(OCc2ccccn2)ccc1Nc1cccc(C(=O)NCCC2CCC2)c1 [Compound 46, N-(2-cyclobutylethyl)-3-((2-methyl-4-(pyridin-2-ylmethoxy)phenyl)amino)benzamide] | 99% | 71% | –
4 | CCCC(C)NC(=O)c1cccc(Nc2ccc(OCc3ccccn3)cc2)c1 (stereo not shown) [Compound 64, N-(pentan-2-yl)-3-((4-(pyridin-2-ylmethoxy)phenyl)amino)benzamide] | – | 93% | 1 to 400 nM
5 | Cc1cc(OCc2ccccn2)ccc1Nc1cccc(NC(=O)NCCC(C)C)c1 [Compound 68, 1-isopentyl-3-(3-((2-methyl-4-(pyridin-2-ylmethoxy)phenyl)amino)phenyl)urea] | – | 70% | 1 to 400 nM
